Measurements as given in patent US20240374763A1, “DIAGNOSIS AND MONITORING USING EXTRADOMAIN-B FIBRONECTIN TARGETED PROBES” (Case Western Reserve University, priority 2020, published 2024).
No end group written: not given here.

What was measured:
Format in all cases: in vivo, mice
MDA-MB-231 tumors = assay: MRMI-mediated monitoring of therapeutic response, MDA-MB-231 tumors; conditions: pretreatment MDA-MB-231 tumors, MT218 0.1 mmol/kg, first 30 min
Procedure: The targeted MRI contrast agent ZD2-N3-Gd(HP-DO3A) (MT218) was provided by Molecular Theranostics (Cleveland, OH) and was synthesized. MR images of the mice bearing MDA-MB-231 or Hs578T tumors were acquired on a 3T MRS 3000 scanner (MRS Solutions, Surrey, UK) with a mouse short quad coil. T1-weighted images were acquired following intravenous injection of MT218 at dose of 0.1 mmol/kg using a fast spin echo (FSE) axial sequence with respiratory gating (TR=305 ms, TE=11 ms, FA=90°, FOV=40×40 mm, slice thickness=1 mm, slice number=15, Nav=2, matrix=256×256). Images were acquired before and at 10, 20, and 30 min after injection of MT218. MRMI was performed before the treatment and then at week 6 post-nanoparticle treatments for MDA-MB-231 and Hs578T tumors. MRI data and image processing was conducted using FIJI (FIJI is just ImageJ) software. The contrast-to-noise ratios (CNRs) of tumors were calculated as the difference of the mean tumor intensity and the mean muscle intensity divided by the standard deviation of the noise.

CAL27 tumors = assay: MRMI of OSCC flank xenografts, CAL27; conditions: MT218 0.04 mmol/kg
Procedure: (§1) Animal experiments were performed under an animal protocol approved by the Institutional Animal Care and Use Committee (IACUC) at Case Western Reserve University (CWRU, Cleveland, OH, USA). Female 4-week-old athymic nude mice purchased from the Jackson Laboratory (Bar Harbor, ME, USA) were housed in the Animal Core Facility at CWRU. Anesthetized mice were subcutaneously inoculated in the right flank with 4×10^6 GFP/luciferase-expressing OSCC cells (n=5 per cell line) in 100 μL of a 1:1 mixture of Matrigel HC (Corning) and DPBS. Tumor size was monitored with caliper measurements. After 4 weeks of growth, tumors were sufficiently large for MRI experiments.
MRI experiments were performed with a 3T MRS-3000 system (MR Solutions, Surrey, UK). Tumor-bearing mice were imaged before and at 10, 20, and 30 minutes post-injection of the targeted contrast agent, MT218 (Molecular Theranostics, LLC, Cleveland, OH, USA), at a dose of 0.04 mmol/kg using a T1-weighted fast spin-echo axial sequence with respiratory gating (TR=305 ms, TE=11 ms, FOV=40×40 mm, slice thickness=1 mm, number of slices=15, Nav=2, matrix=256×248). […]
(§2) Images were exported in DICOM format and analyzed using FIJI. Contrast-to-noise ratio (CNR) for each time point was calculated as the difference between the mean tumor intensity and the mean muscle intensity, divided by the standard deviation of noise.

DLD-1 tumors = assay: MRMI of EDB-FN with MT218, DLD-1 xenografts; conditions: 40 μmol/kg MT218, 25 min post-injection
Procedure: (§3) Nude athymic mice (6-week-old nu/nu females) were purchased from The Jackson Laboratory (Bar Harbor, […]) and housed in the Animal Facility at CWRU. All the animal experiments were performed according to the protocol approved by the IACUC of CWRU. For assessment of drug resistance, 2 drug-resistant and 2 non-drug-resistant models were set up. About 3-4×10^6 DLD-1, RKO, DLD1-DR, and RKO-DR cells suspended in Matrigel-PBS mixture (1:1) were subcutaneously injected in the left flanks of nude mice (100 μL per mouse, 5 mice per group×4 models=20 mice). After 9 days when the tumors reached 100-200 mm3, MRMI was performed on the 4 xenograft models with 40 μmol/kg dose of MT218. The animals were then euthanized, and the tumors were harvested for post-mortem histology and IHC.
(§4) MT218 was synthesized as previously described. Ayat, N. R., et al., ACS Med Chem Lett, 2018. 9(7): p. 730-735. Briefly, click reaction between alkynyl-ZD2 and N3-Gd(HP-DO3A) was performed in the presence of CuSO4 and ascorbate at room temperature, followed by FLASH chromatography purification and validation of MT218 by MALDI-TOF mass spectrometry (m.w. 1443). […] Contrast-to-noise ratios (CNRs) were calculated as (mean tumor intensity—mean muscle intensity)/standard deviation of noise. […]

LNCaP-CXCR2 tumors = assay: MRMI with MT218, LNCaP-CXCR2 xenografts; conditions: 0.04 mmol Gd/kg, 20 min post-injection
Source text: (§5) Xenograft models were established by subcutaneous flank injections in athymic nu/nu mice for the 4 prostate cancer cells and tested with MRMI using 0.04 mmol Gd/kg of MT218.

C4-2-DR tumors = assay: MRMI with MT218, C4-2-DR xenografts; conditions: 0.04 mmol Gd/kg, 20 min post-injection
Source text: as §5

PC3 tumors = assay: MRMI with MT218, PC3 xenografts; conditions: 0.04 mmol Gd/kg
Source text: as §5

LNCaP tumors = assay: MRMI with MT218, LNCaP xenografts; conditions: 0.04 mmol Gd/kg, 20 min post-injection
Source text: as §5

HSC3 tumors = assay: MRMI of OSCC flank xenografts, HSC3; conditions: MT218 0.04 mmol/kg
Procedure: as §1
MRI experiments were performed with a 3T MRS-3000 system (MR Solutions, Surrey, UK). Tumor-bearing mice were imaged before and at 10, 20, […] spin-echo axial sequence with respiratory gating (TR=305 ms, TE=11 ms, FOV=40×40 mm, slice thickness=1 mm, number of slices=15, Nav=2, matrix=256×248). This protocol was repeated on the same mice 2 days later using the untargeted clinical agent gadoteridol at the clinical dose of 0.10 mmol/kg.
as §2

RKO tumors = assay: MRMI of EDB-FN with MT218, RKO xenografts; conditions: 40 μmol/kg MT218, 25 min post-injection
Procedure: as §3, §4

ZD2-N3-Gd(HP-DO3A) (TVRTSAD; also: conjugated to Gd(HP-DO3A) by click reaction of alkynyl-ZD2 with N3-Gd(HP-DO3A), residue of attachment not given here, Gd complex) [MT218, EDB-FN-targeted MRI contrast agent; ZD2 peptide conjugated to the clinical macrocyclic agent Gd(HP-DO3A)]
signal enhancement vs pre-contrast (MDA-MB-231 tumors): Strong signal enhancement | average maximum enhancement (CNR) (CAL27 tumors): 1.80±0.17 | increase in CNRs over the pre-contrast (DLD-1 tumors): 1.53 fold | increase of CNR (LNCaP-CXCR2 tumors): ~3 fold | increase of CNR (C4-2-DR tumors): 6 fold | CNR of PC3 tumors relative to PC3-DR tumors (PC3 tumors): 3.3 fold | CNR over the pre-contrast (PC3 tumors; PC3 tumors, 20 min post-injection): 5 fold | increase in CNR (LNCaP tumors): negligible | average maximum enhancement (CNR) (HSC3 tumors): 2.61±0.17 | increase in CNRs over the pre-contrast (RKO tumors): 1.4 fold
